Key:
Assay type in all cases: physicochemical
[1] = Description (appearance) of tablets on storage
Protocol: (§1) Tablets of ansolvate form D, were packaged with and without desiccant (Sorb-It Cannister, 1 gram). Fifty tablets were packaged in a round, white 1500 mL bottle with a screw cap over an induction seal. Impurities were assayed by HPLC. When stored at 25° C./60% RH with desiccant for 3 months, no increase in total impurities was observed. When stored at 40° C./75% RH with desiccant for 3 months, total impurities increased only by 0.3%. When stored at 40° C./75% RH without desiccant for 3 months, total impurities still increased by 1.1%. As tabulated below, the presence of desiccant appears to further increase the stability of the ansolvate form D. Even though the dissolution rate of tablets containing polymorph D from one batch was below specification (<70%) at an initial test as well as after 3 months at 25° C./60% RH with desiccant, the subsequent batches met the required specification.

[2] = Assay and impurities by HPLC of tablets on storage; parameters: key to Individual Impurities RRT = 0.74 / Individual Impurities RRT = 0.83 / TLK 236 RRT = 0.88 / Individual Impurities RRT = 0.94 / Individual Impurities RRT = 0.96 / Total impurities / Individual Impurities RRT = 0.80 / Individual Impurities RRT = 0.81 / Individual Impurities RRT = 0.86 / Individual Impurities RRT = 0.99: impurity content in %
Description: As used herein, “impurity” refers to one or more of: TLK 236, another polymorphic form of ezatiostat hydrochloride including without limitation form A, B, C, E, or F, and any other compound other than ezatiostat hydrochloride ansolvate, which may be identified by HPLC. TLK 236 is a monoester derived from the partial hydrolysis of ezatiostat where the phenyl glycine moiety remains esterified.
(§2) As described above, form E converts to form B simply during tableting.
as §1

[3] = Tablet dissolution (Q at 45 min); conditions: tablets, hydrochloride
Description: Without being bound by theory, a higher dissolution rate relates to a higher amount of the active agent in the gastric fluid, which in turn relates to higher bioavailability of the active agent. A high bioavailability is desired, for example and without limitation, for reducing inter patient variability of drug exposure for a orally administered agent such as ezatiostat hydrochloride. […] The aqueous solubility can be measured in a variety of aqueous solvents, including without limitation, water, 0.9% aqueous NaCl, 5% dextrose for injection, phosphate buffered saline, and generally aqueous solutions having a pH of less than about 5. Such solvents may include suitable buffers and other salts. […]
as §1

[4] = Water content of tablets on storage; conditions: hydrochloride
Protocol: Karl Fischer analyses for water determination were performed on a Mettler Toledo DL39 Karl Fischer titrator. About 10-15 mg of sample was placed in the KF titration vessel containing approximately 100 mL of Hydranal®—Coulomat AD reagent and mixed for 60 seconds to ensure dissolution. The dissolved sample was then titrated by means of a generator electrode which produces iodine by electrochemical oxidation. […]
as §1

[5] = X-ray diffraction, polymorphic form in tablets; conditions: hydrochloride; for X-ray Diffraction: tablets
Protocol: X-ray powder diffraction (XRPD) analyses were performed on a Shimadzu XRD-6000 X-ray powder diffractometer using Cu Kα radiation from a long fine focus X-ray tube, operated at 40 kV, 40 mA. The divergence and scattering slits were set at 1° and the receiving slit was set at 0.15 mm. Diffracted radiation was detected by a NaI scintillation detector. A θ-2θ continuous scan at 3°/min (0.4 sec/0.02° step) from 2.5°-40° 2θ was used. A silicon standard was analyzed to check alignment of the instrument. Data were collected and analyzed using XRD-6000 v.4.1 software.
Stress experiments: solids were stressed under different temperature and/or relative humidity (RH) environments for a measured time period. Specific RH values were achieved by placing the sample inside sealed chambers containing saturated salt solutions. Samples were analyzed by XRPD immediately after removal from the stress environment.
as §2, §1

[6] = Assay and impurities by HPLC of tablets on storage; parameters: key to Individual Impurities RRT = 0.74 / TLK 236 RRT = 0.88 / Individual Impurities RRT = 0.96 / Total impurities: impurity content in %; conditions: 6 Month at 40° C./75% RH without desiccant, hydrochloride
[7] = 3 Month at 40° C./75% RH without desiccant
[8] = 6 Month at 40° C./75% RH without desiccant, hydrochloride
[9] = 3 Month at 40° C./75% RH without desiccant, hydrochloride
[10] = 6 Month at 40° C./75% RH without desiccant

Description [1, 7]: Off-white
Description [1, 8]: Brown round
Description ([1]; Initial): White round
Individual Impurities RRT = 0.59/0.62 [2, 7]: 0.07
Individual Impurities RRT = 0.86 [2, 7]: 0.06
Assay (HPLC) [2, 9]: 90.3 % Label Claim
Individual Impurities RRT = 0.74 [2, 9]: 0.42
Individual Impurities RRT = 0.80 [2, 9]: 0.16
Individual Impurities RRT = 0.81 [2, 9]: 0.14
Individual Impurities RRT = 0.83 [2, 9]: 0.31
Individual Impurities RRT = 0.94 [2, 9]: 0.08
Individual Impurities RRT = 0.96 [2, 9]: 0.19
Individual Impurities RRT = 0.99 [2, 9]: 0.20
TLK 236 RRT = 0.88 [2, 9]: 3.45
Total impurities [2, 9]: 5.1
Individual Impurities RRT = 0.80 [2, 8]: 0.41
Individual Impurities RRT = 0.81 [2, 8]: 0.17
Individual Impurities RRT = 0.83 [2, 8]: 0.16
Individual Impurities RRT = 0.99 ([2]; Initial): 0.12
Assay (HPLC) ([2]; Initial, hydrochloride): 93.7 % Label Claim
Individual Impurities RRT = 0.74 ([2]; Initial, hydrochloride): 0.38
Individual Impurities RRT = 0.83 ([2]; Initial, hydrochloride): 0.34
Individual Impurities RRT = 0.96 ([2]; Initial, hydrochloride): 0.20
TLK 236 RRT = 0.88 ([2]; Initial, hydrochloride): 0.42
Total impurities ([2]; Initial, hydrochloride): 1.5
Dissolution, Mean at 45 min [3, 7]: Mean = 33 % of label claim
Dissolution, Mean at 45 min [3, 10]: Mean = 19 % of label claim
Dissolution, Mean at 45 min ([3]; Initial): Mean = 46 % of label claim
Water Content [4, 7]: 2.3%
Water Content [4, 10]: 2.3%
Water Content ([4]; Initial): 3.5%
X-ray Diffraction [5, 7]: Polymorph B
X-ray Diffraction [5, 10]: Polymorph B
X-ray Diffraction ([5]; Initial): Polymorph B
Assay (HPLC) [6]: 84.6 % Label Claim
Individual Impurities RRT = 0.59/0.62 [6]: 0.15
Individual Impurities RRT = 0.74 [6]: 0.51
Individual Impurities RRT = 0.96 [6]: 0.24
TLK 236 RRT = 0.88 [6]: 4.66
Total impurities [6]: 6.3
SMILES: CCOC(=O)[C@@H](N)CCC(=O)N[C@@H](CSCc1ccccc1)C(=O)N[C@@H](C(=O)OCC)c1ccccc1.Cl [Polymorph Form E, ezatiostat hydrochloride]
polymorphic conversion on storage ([5]; 40° C. and 75% RH without a desiccant, form D 6 months, form E 3 months, listed as solvate form E): transforms into a mixture of form B and the ansolvate form D within 3 months
polymorphic conversion during tablet manufacture ([5]; during tablet manufacture, listed as solvate form E): transforms almost entirely to form B crystals merely during tablet manufacture

From US8361971B2, “Tablet formulation of ezatiostat” (Telik, Inc., priority 2010, dated 2013)
